Here are results for 17 molecules from patent US20160272617A1, “SUBSTITUTED PHENYLALANINE DERIVATIVES” (BAYER PHARMA AKTIENGESELLSCHAFT, priority 2013, published 2016).

Structures can show the parent of a compound that is named as a salt.

Experiment [1] has as its target T1, human plasmin (Homo sapiens, UniProt P00747).
T1 construct: purchased Kordia
The experiment can be described thus: Measurement of plasmin inhibition (fluorogenic peptide substrate MeOSuc-Ala-Phe-Lys-AMC). Type of experiment: biochemical. The following applies: plasmin from Kordia, 15 min preincubation, 30 min at 22° C., fluorescence. Here is the method:
The plasmin inhibition of the inventive substances is determined using a biochemical test system which utilizes the reaction of a peptidic plasmin substrate to determine the enzymatic activity of human plasmin. Here, plasmin cleaves from the peptic plasmin substrate the C-terminal aminomethylcoumarin (AMC), the fluorescence of which is measured. The determinations are carried out in microtitre plates.
Test substances are dissolved in dimethyl sulphoxide and serially diluted in dimethyl sulphoxide (3000 μM to 0.0078 μM; resulting final concentrations in the test: 50 μM to 0.00013 μM). In each case 1 μl of the diluted substance solutions are placed into the wells of white microtitre plates from Greiner (384 wells). Subsequently, the following are added successively: 20 μl of assay buffer (50 mmol/Tris buffer pH 7.4; 100 mmol/l sodium chloride; 5 mmol/calcium chloride; 0.1% bovine serum albumin) and 20 μl of plasmin from Kordia (0.3 μg/ml in assay buffer) are then added successively. After 15 min of incubation, the enzyme reaction is started by addition of 20 μl of the plasmin substrate MeOSuc-Ala-Phe-Lys-AMC dissolved in assay buffer (150 μM in assay buffer) from Bachem, the mixture is incubated at room temperature (22° C.) for 30 min and fluorescence is then measured (excitation: 360 nm, emission: 460 nm). The measured emissions of the test batches with test substance are compared to those of control batches without test substance (only dimethyl sulphoxide instead of test substance in dimethyl sulphoxide), and the IC50 values are calculated from the concentration/activity relationships.

Experiment [2] has as its target T2, human factor XIa (Homo sapiens, UniProt P03951).
T2 construct: purchased Kordia
Nature of the experiment: Measurement of FXIa inhibition (fluorogenic peptide substrate Boc-Glu(OBzl)-Ala-Arg-AMC). The note with it: factor XIa from Kordia, 15 min preincubation, 30 min at 22° C., fluorescence. Type of experiment: biochemical. The method in brief: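 Released AMC fluorescence (360/460 nm) read after 30 min at 22 °C. The reaction was started with Boc-Glu(OBzl)-Ala-Arg-AMC (10 μM stock) after a 15 min preincubation of the enzyme (0.45 nM stock) with compound (final 50 μM to 0.00013 μM).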

Experiment [3] deals with human and animal plasma. Nature of the experiment: Determination of anticoagulatory activity: activated partial thromboplastin time (aPTT) in plasma. The note with it: concentration of test substance which brings about a 1.5-fold extension of the aPTT; plasma species not given. In a few lines: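 Citrated plasma (1:9, 0.11 M citrate; 4000 g, 15 min) from human or animal blood incubated with test compound and cephalin/kaolin PTT reagent for 3 min at 37° C.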

What is called IC50 is the concentration needed to halve the response being measured.

T2 sequence (P03951 388-625 limits assumed): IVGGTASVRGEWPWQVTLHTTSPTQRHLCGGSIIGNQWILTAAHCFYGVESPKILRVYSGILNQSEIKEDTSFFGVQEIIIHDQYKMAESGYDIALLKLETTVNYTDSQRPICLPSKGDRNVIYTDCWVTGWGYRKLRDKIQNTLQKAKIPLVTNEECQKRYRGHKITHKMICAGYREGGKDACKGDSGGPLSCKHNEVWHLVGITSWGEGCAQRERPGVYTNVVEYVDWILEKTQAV
T2 sequence (P03951 19-387 partner limits assumed): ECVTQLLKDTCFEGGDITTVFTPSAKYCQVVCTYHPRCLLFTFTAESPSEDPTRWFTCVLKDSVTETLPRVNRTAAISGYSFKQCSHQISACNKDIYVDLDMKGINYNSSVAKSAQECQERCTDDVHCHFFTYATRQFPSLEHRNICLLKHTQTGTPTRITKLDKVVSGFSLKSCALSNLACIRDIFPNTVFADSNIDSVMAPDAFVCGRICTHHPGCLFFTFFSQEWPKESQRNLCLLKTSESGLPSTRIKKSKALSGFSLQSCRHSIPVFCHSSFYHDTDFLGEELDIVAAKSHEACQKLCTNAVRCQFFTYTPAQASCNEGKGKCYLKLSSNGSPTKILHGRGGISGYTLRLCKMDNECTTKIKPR
T1 sequence (P00747 581-810 limits assumed): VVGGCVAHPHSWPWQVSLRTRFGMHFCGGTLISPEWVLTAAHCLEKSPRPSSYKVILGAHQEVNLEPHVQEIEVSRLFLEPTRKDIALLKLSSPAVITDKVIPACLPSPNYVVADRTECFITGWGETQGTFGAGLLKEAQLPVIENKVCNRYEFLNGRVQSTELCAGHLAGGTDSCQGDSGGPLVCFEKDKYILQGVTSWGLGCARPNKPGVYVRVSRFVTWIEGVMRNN
T1 sequence (P00747 97-580 partner limits assumed): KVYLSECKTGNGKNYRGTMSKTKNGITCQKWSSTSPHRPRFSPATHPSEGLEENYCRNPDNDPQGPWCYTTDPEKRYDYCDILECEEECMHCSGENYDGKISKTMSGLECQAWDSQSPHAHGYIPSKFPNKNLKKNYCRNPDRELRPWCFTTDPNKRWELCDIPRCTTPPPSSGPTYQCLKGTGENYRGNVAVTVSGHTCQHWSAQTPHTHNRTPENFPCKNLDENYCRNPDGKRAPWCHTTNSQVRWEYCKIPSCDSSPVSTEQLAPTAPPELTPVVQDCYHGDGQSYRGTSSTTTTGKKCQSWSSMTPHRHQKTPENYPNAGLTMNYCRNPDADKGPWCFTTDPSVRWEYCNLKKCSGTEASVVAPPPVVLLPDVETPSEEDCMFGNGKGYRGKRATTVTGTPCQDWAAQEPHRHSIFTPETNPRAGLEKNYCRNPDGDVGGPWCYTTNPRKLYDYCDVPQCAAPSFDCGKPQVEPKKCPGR

As for `Cc1cc(C(=O)NC(C)C)ccc1-c1ccc(C[C@@H](NC(=O)C2CCC(CN)CC2)C(=O)Nc2ccc3cn[nH]c3c2)cc1` (single isomer, unassigned; enantiomer 1) [Example 169], the figures for the IC50 in experiment [1] and in experiment [2] were 270 nM and 2800 nM, respectively.
For the molecule `Cc1cc(C(=O)NC(C)C)ccc1-c1ccc(C[C@H](NC(=O)C2CCC(CN)CC2)C(=O)Nc2ccc3cn[nH]c3c2)cc1` (single isomer, unassigned; enantiomer 2) [Example 170], the IC50 turned out to be 1.3 nM in experiment [1] and 5.6 nM in experiment [2].
For `Cc1cc(C(=O)NC(C)C)ccc1-c1ccc(C[C@H](NC(=O)[C@H]2CC[C@H](CN)CC2)C(=O)Nc2ccc(-c3nn[nH]n3)cc2)cc1` [Example 7, 4′-[(2S)-2-({[trans-4-(Aminomethyl)cyclohexyl]carbonyl}amino)-3-oxo-3-{[4-(2H-tetrazol-5-yl)phenyl]amino}propyl]-N-isopropyl-2-methylbiphenyl-4-carboxamide hydrochloride], in that order: 1.9 nM and 1.7 nM.
For `Cc1cc(C(=O)N2CCCC2)ccc1-c1ccc(C[C@H](NC(=O)[C@H]2CC[C@H](CN)CC2)C(=O)Nc2ccc(-c3nn[nH]n3)cc2)cc1` [Example 20, trans-4-(Aminomethyl)-N-[(2S)-3-[2′-methyl-4′-(pyrrolidin-1-ylcarbonyl)biphenyl-4-yl]-1-oxo-1-{[4-(2H-tetrazol-5-yl)phenyl]amino}propan-2-yl]cyclohexanecarboxamide], in that order: 5.7 nM and 1.8 nM.
Take `Cc1cc(C(=O)NC(C)C)ccc1-c1ccc(C[C@H](NC(=O)[C@H]2CC[C@H](CN)CC2)C(=O)Nc2ccc(-c3nn[nH]n3)c(F)c2)cc1` [Example 96, 4′-[(2S)-2-({[trans-4-(Aminomethyl)cyclohexyl]carbonyl}amino)-3-{[3-fluoro-4-(2H-tetrazol-5-yl)phenyl]amino}-3-oxopropyl]-N-isopropyl-2-methylbiphenyl-4-carboxamide hydrochloride]: the “aPTT” value in experiment [3] stood at 0.5 µmol/L. Moreover, the IC50 in experiment [1] was 1.4 nM; in experiment [2] it was 1.3 nM.
As for `Cc1cc(C(=O)NC2CCC2)ccc1-c1ccc(C[C@H](NC(=O)[C@H]2CC[C@H](CN)CC2)C(=O)Nc2cc(Cl)c3oc(=O)[nH]c3c2)cc1` [Example 102, 4′-{(2S)-2-({[trans-4-(Aminomethyl)cyclohexyl]carbonyl}amino)-3-[(7-chloro-2-oxo-2,3-dihydro-1,3-benzoxazol-5-yl)amino]-3-oxopropyl}-N-cyclobutyl-2-methylbiphenyl-4-carboxamide hydrochloride], the IC50 in experiment [1] is 0.74 nM; in experiment [2], 7.9 nM.
Take `Cc1cc(C(=O)NC(C)C)ccc1-c1ccc(C[C@H](NC(=O)[C@H]2CC[C@H](CN)CC2)C(=O)Nc2ccc(-c3nnc(C(F)(F)C(F)(F)C(=O)O)[nH]3)cc2)cc1` [Example 116, 3-{5-[4-({(2S)-2-({[trans-4-(Aminomethyl)cyclohexyl]carbonyl}amino)-3-[4′-(isopropylcarbamoyl)-2′-methylbiphenyl-4-yl]propanoyl}amino)phenyl]-4H-1,2,4-triazol-3-yl}-2,2,3,3-tetrafluoropropanoic acid hydrochloride]: in experiment [3], the “aPTT” value amounted to 0.57 µmol/L. In addition, the IC50 in experiment [1] came to 4.4 nM; in experiment [2], 2 nM.
For `Cc1cc(C(=O)N[C@@H](C)C(F)(F)F)ccc1-c1ccc(C[C@H](NC(=O)[C@H]2CC[C@H](CN)CC2)C(=O)Nc2ccc3[nH]c(=O)[nH]c3c2)cc1` [Example 133, 4′-{(2S)-2-({[trans-4-(Aminomethyl)cyclohexyl]carbonyl}amino)-3-oxo-3-[(2-oxo-2,3-dihydro-1H-benzimidazol-5-yl)amino]propyl}-2-methyl-N-[(2S)-1,1,1-trifluoropropan-2-yl]biphenyl-4-carboxamide], in that order: 0.1 µmol/L, 1.6 nM and 6.7 nM.
As to `CC(C)NC(=O)c1ccc(-c2ccc(C[C@H](NC(=O)[C@H]3CC[C@H](CN)CC3)C(=O)Nc3cc(F)c4cn[nH]c4c3)cc2)c(Cl)c1` [Example 134, 4′-{(2S)-2-({[trans-4-(Aminomethyl)cyclohexyl]carbonyl}amino)-3-[(4-fluoro-1H-indazol-6-yl)amino]-3-oxopropyl}-2-chloro-N-isopropylbiphenyl-4-carboxamide hydrochloride], the “aPTT” value in experiment [3] stood at 0.44 µmol/L. The IC50 in experiment [1] is 0.64 nM; in experiment [2], 8.9 nM.
For `Cc1cc(C(=O)NC(C)C)ccc1-c1ccc(C[C@H](NC(=O)[C@H]2CC[C@H](CN)CC2)C(=O)Nc2ccc3c(=O)[nH][nH]c3c2)cc1` [Example 135, 4′-{(2S)-2-({[trans-4-(Aminomethyl)cyclohexyl]carbonyl}amino)-3-oxo-3-[(3-oxo-2,3-dihydro-1H-indazol-6-yl)amino]propyl}-N-isopropyl-2-methylbiphenyl-4-carboxamide hydrochloride], in that order: 0.24 µmol/L, 0.96 nM and 2.2 nM.
For `CC(NC(=O)c1ccc(-c2ccc(CC(NC(=O)[C@H]3CC[C@H](CN)CC3)C(=O)Nc3ccc(-c4nnn[nH]4)cc3)cc2)c(Cl)c1)C1CC1` (stereo partly drawn) [Example 136, hydrochloride], in that order: 0.29 µmol/L, 1.5 nM and 1.2 nM.
For `CC(C)NC(=O)c1ccc(-c2ccc(C[C@H](NC(=O)[C@H]3CC[C@H](CN)CC3)C(=O)Nc3ccc4[nH]c(=O)[nH]c4c3)cc2)c(Cl)c1` [Example 137, 4′-{(2S)-2-({[trans-4-(Aminomethyl)cyclohexyl]carbonyl}amino)-3-oxo-3-[(2-oxo-2,3-dihydro-1H-benzimidazol-5-yl)amino]propyl}-2-chloro-N-isopropylbiphenyl-4-carboxamide hydrochloride], in that order: 0.07 µmol/L, 2.2 nM and 11 nM.
Turning to `Cc1cc(C(=O)NC2CCC2)ccc1-c1ccc(C[C@H](NC(=O)[C@H]2CC[C@H](CN)CC2)C(=O)Nc2ccc(-c3nnn[nH]3)cc2)cc1` [Example 138, 4′-[(2S)-2-({[trans-4-(Aminomethyl)cyclohexyl]carbonyl}amino)-3-oxo-3-{[4-(1H-tetrazol-5-yl)phenyl]amino}propyl]-N-cyclobutyl-2-methylbiphenyl-4-carboxamide hydrochloride], in experiment [3], the “aPTT” value came out at 0.25 µmol/L. Also, the results for the IC50 in experiment [1] and in experiment [2] were 2.3 nM and 0.84 nM, respectively.
Regarding `Cc1cc(C(=O)NC(C)C)ccc1-c1ccc(C[C@H](NC(=O)[C@H]2CC[C@H](CN)CC2)C(=O)Nc2cc(Cl)c3oc(=O)[nH]c3c2)cc1` [Example 156, 4′-{(2S)-2-({[trans-4-(Aminomethyl)cyclohexyl]carbonyl}amino)-3-[(7-chloro-2-oxo-2,3-dihydro-1,3-benzoxazol-5-yl)amino]-3-oxopropyl}-N-isopropyl-2-methylbiphenyl-4-carboxamide hydrochloride], the IC50 was determined as 0.58 nM in experiment [1] and 7.1 nM in experiment [2].
For `Cc1cc(C(=O)NC2CCC2)ccc1-c1ccc(C[C@H](NC(=O)[C@H]2CC[C@H](CN)CC2)C(=O)Nc2ccc3cc(C(=O)O)[nH]c3c2)cc1` [Example 160, 6-({(2S)-2-({[trans-4-(Aminomethyl)cyclohexyl]carbonyl}amino)-3-[4′-(cyclobutylcarbamoyl)-2′-methylbiphenyl-4-yl]propanoyl}amino)-1H-indole-2-carboxylic acid hydrochloride], in that order: 1.3 nM and 5.2 nM.
With `Cc1cc(C(=O)NC(C)C)ccc1-c1ccc(C[C@H](NC(=O)[C@H]2CC[C@H](CN)CC2)C(=O)Nc2cc(C(=O)O)c3cn[nH]c3c2)cc1` [Example 161, 6-({(2S)-2-({[trans-4-(Aminomethyl)cyclohexyl]carbonyl}amino)-3-[4′-(isopropylcarbamoyl)-2′-methylbiphenyl-4-yl]propanoyl}amino)-1H-indazole-4-carboxylic acid hydrochloride], the IC50 in experiment [1] worked out at 6.7 nM; in experiment [2] it was 6.1 nM.
As to `CNC(=O)C(F)(F)C(F)(F)c1nnc(-c2ccc(NC(=O)[C@H](Cc3ccc(-c4ccc(C(=O)NC(C)C)cc4C)cc3)NC(=O)[C@H]3CC[C@H](CN)CC3)cc2)[nH]1` [Example 165, 4′-({(2S)-2-({[trans-4-(Aminomethyl)cyclohexyl]carbonyl}amino)-3-oxo-3-[(4-{5-[1,1,2,2-tetrafluoro-3-(methylamino)-3-oxopropyl]-4H-1,2,4-triazol-3-yl}phenyl)amino]propyl}-N-isopropyl-2-methylbiphenyl-4-carboxamide hydrochloride], the IC50 in experiment [1] is 1.9 nM; in experiment [2], 1.4 nM.
